Results: US10300059B2, “Pharmaceutical composition and therapeutic combination comprising a cholesteryl ester transfer protein inhibitor and HMG CoA reductase inhibitors” (DEZIMA PHARMA B.V., priority 2014, dated 2019)
Like-named read-outs stand apart in the source and are kept apart here.

Experiments:
[1] = cited from earlier work
endothelin-1 = settings: animal studies; cited from earlier work
[2] = test system: patients with mild dyslipidemia; assay: Double-blind, placebo-controlled phase 2 trial: fasted lipid profile after 12 weeks; assay type: in vivo, human
Procedure: In a double-blind, placebo controlled clinical study the effects of 12 weeks of administration of Compound A alone and in combination with statins in patients with mild dyslipidemia was examined. […] Patients were recruited at 20 sites in the Netherlands and Denmark. The trial was approved by Independent Ethics Committees, and each patient provided written informed consent. The trial was conducted in accordance with the principles of the Declaration of Helsinki and Good Clinical Practice Guidelines and the protocol was registered on ClinicalTrials.gov (NCT01970215). The trial consisted of a screening visit, followed by a run-in phase of 4 weeks (or 6 weeks for patients that required a washout of existing lipid-lowering therapy). […] All treatments were to be taken once daily with food for 12 weeks. […] Follow-up visits were conducted 2 and 8 weeks after the end of treatment. Safety was assessed throughout the trial by monitoring adverse events and concomitant medication use, 12-lead electrocardiograms (ECGs), vital signs, laboratory safety assessments and physical examinations. Additional assessments included salivary cortisol, plasma aldosterone, high-sensitivity C-reactive protein (hsCRP) and endothelin 1. Efficacy assessments included fasted lipid profiles including total cholesterol (TC), HDL-C, LDL-C, triglycerides, apolipoproteins AI, B and E (ApoAI, Apo B and ApoE), lipoprotein a (Lp[a]) and derived parameters. […] Blood samples were collected for pharmacokinetic analysis of Compound A. Total cholesterol and triglycerides were measured by homogenous enzymatic assay using a Modular analyser (cholesterol oxidase peroxidase-peroxidase aminophenazone phenol [CHOP-PAP]) method and a glycerol phosphate oxidase [GPO-PAP] method, respectively. […] Lp(a) was measured by immunoturbidimetry using reagents and standards from Wako Chemicals (Germany). LDL particle size was determined by gradient gel electrophoresis. HDL fraction was separated by a combined ultracentrifugation-precipitation method ((β-quantification). HDL-2 and HDL-3 fractions were then separated by further ultracentrifugation. […] The measurements were performed on an Olympus AU600 automatic analyzer and were calibrated using secondary standards from Roche Diagnostics (total-cholesterol, triglycerides) and Diasys Diagnostics (free cholesterol, phospholipids), respectively. Esterified cholesterol was calculated as the difference between total-cholesterol and free cholesterol. […] The primary and secondary efficacy analyses were performed using an analysis of covariance (ANCOVA) model with treatment and use of statin therapy at randomisation as factors and the baseline value for the respective efficacy variable as a covariate. Least-squares means, standard errors and 2-tailed 95% confidence intervals for each treatment group and for pairwise comparisons between Compound A doses and placebo, between Compound A plus atorvastatin and atorvastatin alone, and between Compound A plus rosuvastatin and rosuvastatin alone were provided. As there were two co-primary efficacy variables, a closed testing procedure was used in order to control the family-wise error. No interim analyses were planned or conducted.

[3] = test system: patients with mild dyslipidemia; assay: Serum-driven cholesterol efflux, baseline versus week 12 of the phase 2 trial; assay type: in vivo, human; settings: p<0.0001
From the text: Bars are means and error bars are standard deviations. The baseline data only includes patients who had both baseline and week 12 data.
In this Figure baseline and week 12 data for serum-driven cholesterol efflux is shown. Bars are means and error bars are standard deviations. The baseline data only includes patients who had both baseline and week 12 data.

[4] = data from phase 2 studies; cited from earlier work
patients [5] = settings: 150 mg once daily; cited from earlier work
fasted healthy subjects = settings: 200 mg once daily; cited from earlier work
[6] = in humans; accumulates in fat tissue; cited from earlier work
patients [7] = settings: 500 mg once daily monotherapy in patients; cited from earlier work
[8] = in vivo; cited from earlier work
[9] = atorvastatin (20 mg) once daily
[10] = 2.5 mg of Compound A once daily
[11] = rosuvastatin (10 mg) once daily

SMILES: CCOC(=O)N1c2ccc(C(F)(F)F)cc2[C@@H](N(Cc2cc(C(F)(F)F)cc(C(F)(F)F)c2)C(=O)OC)C[C@H]1CC [Torcetrapib, torcetrapib]
- off-target effects ([1]; consistent with mineralocorticoid activity): increased blood pressure, changes in electrolytes (increases in sodium and bicarbonate and decreases in potassium) and increases in aldosterone
- decrease of LDL-C ([1]; dosed at 60 mg): 25%
- increase of HDL-C ([1]; dosed at 60 mg): 72%
- safety concerns ([1]; in combination with the HMG CoA reductase inhibitor atorvastatin): unexpected increase in cardiovascular events and death
- expression of endothelin-1 (endothelin-1): increases expression of endothelin-1

SMILES: CC(C)c1c(C(=O)Nc2ccccc2)c(-c2ccccc2)c(-c2ccc(F)cc2)n1CC[C@@H](O)C[C@@H](O)CC(=O)O [Atorvastatin, atorvastatin]
- HDL-C, percentage change at Week 12 compared to baseline [2, 9]: 1.27
- LDL-C, percentage change at Week 12 compared to baseline [2, 9]: −46.73
- Lp(a), percentage change at Week 12 compared to baseline [2, 9]: −4.46

SMILES: CCOC(=O)N1c2ccc(C(F)(F)F)cc2[C@@H](N(Cc2cc(C(F)(F)F)cc(C(F)(F)F)c2)c2ncc(OCCCC(=O)O)cn2)C[C@H]1CC [Compound A, {4-[(2-{[3,5-bis(trifluoromethyl)benzyl][(2R,4S)-1-(ethoxycarbonyl)-2-ethyl-6-(trifluoromethyl)-1,2,3,4-tetrahydroquinolin-4-yl]amino}pyrimidin-5-yl)oxy]butanoic acid}]
- HDL-C, percentage change at Week 12 compared to baseline ([2]; 1 mg of Compound A once daily): 76.04
- LDL-C, percentage change at Week 12 compared to baseline ([2]; 1 mg of Compound A once daily): −27.05
- Lp(a), percentage change at Week 12 compared to baseline ([2]; 1 mg of Compound A once daily): −28.81
- HDL-C, percentage change at Week 12 compared to baseline [2, 10]: 122.28
- LDL-C, percentage change at Week 12 compared to baseline [2, 10]: −34.38
- Lp(a), percentage change at Week 12 compared to baseline [2, 10]: −26.69
- HDL-C, percentage change at Week 12 compared to baseline ([2]; 5 mg of Compound A once daily): 160.90
- LDL-C, percentage change at Week 12 compared to baseline ([2]; 5 mg of Compound A once daily): −47.49
- Lp(a), percentage change at Week 12 compared to baseline ([2]; 5 mg of Compound A once daily): −37.33
- HDL-C, percentage change at Week 12 compared to baseline ([2]; 10 mg of Compound A once daily): 180.64
- LDL-C, percentage change at Week 12 compared to baseline ([2]; 10 mg of Compound A once daily): −47.26
- Lp(a), percentage change at Week 12 compared to baseline ([2]; 10 mg of Compound A once daily): −34.86
- increase in the ability of serum to promote cholesterol efflux ([3]; 1 mg of Compound A): 16.9%
- increase in serum-mediated cholesterol efflux ([3]; 10 mg dose of Compound A): 36.7%

SMILES: COc1cc(F)c(C(C)C)cc1-c1ccc(C(F)(F)F)cc1CN1C(=O)O[C@H](c2cc(C(F)(F)F)cc(C(F)(F)F)c2)[C@@H]1C [Anacetrapib, anacetrapib]
- mineralocorticoid activity [4]: without mineralocorticoid activity
- decrease of LDL-C (patients [5]): 40%
- increase of HDL C (patients [5]): 139%
- decrease of LDL-C (fasted healthy subjects): 36%
- increase of HDL C (fasted healthy subjects): 97%
- half life [6]: 2-4 years

SMILES: Cc1cc(C)c2c(c1)[C@@H](N(Cc1cc(C(F)(F)F)cc(C(F)(F)F)c1)c1nnn(C)n1)CCCN2C[C@H]1CC[C@H](C(=O)O)CC1 [Evacetrapib, evacetrapib]
- mineralocorticoid activity [4]: without mineralocorticoid activity
- decrease of LDL-C (patients [7]): 36%
- increase of HDL-C (patients [7]): 129%

SMILES: CCC(CC)CC1(C(=O)Nc2ccccc2SC(=O)C(C)C)CCCCC1 [Dalcetrapib, dalcetrapib]
- effects on LDL-C concentrations [8]: minimal effects
- increase of HDL-C [8]: 30-40%

SMILES: CC(C)c1nc(N(C)S(C)(=O)=O)nc(-c2ccc(F)cc2)c1/C=C/[C@@H](O)C[C@@H](O)CC(=O)O [Rosuvastatin, rosuvastatin]
- HDL-C, percentage change at Week 12 compared to baseline [2, 11]: 6.16
- LDL-C, percentage change at Week 12 compared to baseline [2, 11]: −47.36
- Lp(a), percentage change at Week 12 compared to baseline [2, 11]: −7.79
